Laboratory results published in US20240092784A1, “CONDENSED HETEROCYCLIC COMPOUND” (NISSAN CHEMICAL CORPORATION, priority 2020, published 2024).
Where a name gives a salt, the structure may show the parent alone.

Biological target: human SPR (Homo sapiens (Human), UniProt P35270)
Test: Evaluation Example 2: Measurement of human SPR inhibitory activity (seven concentrations, sepiapterin absorbance at 420 nm)
Type: biochemical
Details: Evaluation Example 2, seven concentrations 0.14 nM to 100 nM, 240 minutes at room temperature, read-out: IC50
Description: Human SPR was prepared as described below. The full-length human SPR (1-261) cDNA was purchased from Eurofins Genomics as an artificially synthesized plasmid containing a DNA sequence optimized for the E. coli expression system so that the sequence of the expressed protein after transcription and translation matches the sequence described in UniprotKB (P35270).
Linearized insert and vector were prepared by PCR using primers designed for amplification of human SPR cDNA and primers designed to contain the thrombin recognition sequence of pET28a (Novagen) and a polyhistidine tag. Cloning was performed using In-Fusion (registered trademark) HD Cloning Kit (TaKaRa) to thereby construct a human SPR expression plasmid. The resultant human SPR expression plasmid was transformed into BL21 (DE3) competent cells (INVITROGEN).
The cells were inoculated into LB medium (1% triptone, 0.5% yeast extract, 1% sodium chloride) containing […] of kanamycin, and then precultured at 37° C. overnight. The precultured cells were inoculated into TB medium (1.2% triptone, 2.4% yeast extract, 9.4% dipotassium hydrogen phosphate, 2.2% potassium dihydrogen phosphate, 0.8% glycerin) containing […] of kanamycin, and the cultured at 37° C., to thereby induce SPR expression with 0.5 mM IPTG for four hours. After the induction, the cells were collected by centrifugation at 6,000 G for 30 minutes and washed with PBS, and the washing was discarded. The washed cells were suspended in buffer solution A (20 mM MES, pH 6.5, 100 mM sodium chloride, 1 mM DTT, 5 mM imidazole). Subsequently, the cell suspension was subjected to ultrasonic treatment to thereby homogenize the cells. The cell homogenate was clarified by centrifugation at 30,000 G for 60 minutes and then filtered with a […]. The filtrate was allowed to pass through HisTrapFF 5 mL column (GE Healthcare). The resin was washed with buffer A, and then gradient elution was performed with buffer B (20 mM MES, pH 6.5, 100 mM sodium chloride, 1 mM DTT, 500 mM imidazole). Thrombin was added to a fraction containing the SPR protein, and the mixture was dialyzed in buffer A overnight, to thereby cleave the tag. After removal of the thrombin by with Benzamidine Sepharose 4 FF (GE Healthcare), the resultant product was allowed to pass through the HisTrapFF 5 mL column, to thereby remove the tag, followed by concentration with Amicon Ultra 10,000 NMWL (Merck Millipore). The concentrate was purified by gel filtration using HiLoad 16/60 Superdex 75 pg (GE Healthcare) equilibrated with buffer C (20 mM MES, pH 6.5, 100 mM sodium chloride, 1 mM DTT). The fraction containing SPR protein was concentrated and then cryopreserved at −80° C.
Human SPR inhibitory activity was measured by using a 384-well low adsorption clear plate (Greiner) with buffer D containing 100 mM Tris-HCl (pH 7.5) (Thermo Fisher Scientific) and 0.01% bovine serum albumin (Sigma). A compound was diluted with DMSO to achieve seven different final concentrations; i.e., 0.14 nM, 0.41 nM, 1.23 nM, 3.7 nM, 11.1 nM, 33 nM, and 100 nM. A 1.5 μL aliquot of the compound solution prepared with DMSO was diluted with 250 μL of buffer D, and the thus-diluted solution was dispensed into the 384-well plate at 20 μL/well. Thereafter, human SPR was diluted with buffer D to 150 ng/mL and then dispensed into the 384-well plate at 20 μL/well. Subsequently, 40 μL of ultrapure water containing 120 μM sepiapterin (produced by the method described in L-Sepiapterin, Heterocycles, 2008, 76, 1329-1335 and WO 2013/168693) and 160 μM NADPH (Nacalai) was added to each well, and then reaction was initiated. The reaction mixture was incubated at room temperature for 240 minutes. Thereafter, in order to determine the amount of sepiapterin, the absorbance at 420 nm was measured by applying the 384-well plate to EnSpire multimode plate reader (Perkin Elmer). The percent inhibition (%) of human SPR by the test compound was calculated by the following formula.

Sequence of human SPR (P35270 whole entry): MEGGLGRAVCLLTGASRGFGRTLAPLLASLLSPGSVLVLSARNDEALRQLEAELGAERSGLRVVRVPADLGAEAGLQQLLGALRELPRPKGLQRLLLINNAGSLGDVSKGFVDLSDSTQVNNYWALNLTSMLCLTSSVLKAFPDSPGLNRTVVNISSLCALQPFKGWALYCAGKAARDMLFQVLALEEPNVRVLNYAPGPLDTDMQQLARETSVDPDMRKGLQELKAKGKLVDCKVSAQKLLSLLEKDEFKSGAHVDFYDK

## CC(C)Cn1c(=O)c(C(=O)NC2CC2)c(O)n2ncc(C(=O)NCc3ccc(F)cc3F)c12 [Synthesis Example 234, N6-Cyclopropyl-N3-(2,4-difluorobenzyl)-7-hydroxy-4-isobutyl-5-oxo-4,5-dihydropyrazolo[1,5-a]pyrimidine-3,6-dicarboxamide]
  IC50: 1.41 nM

## CC(C)Cn1c(=O)c(C(=O)NC2CC2)c(O)n2ncc(C(=O)NCc3ncccc3F)c12 [Synthesis Example 235, N6-Cyclopropyl-N3-((3-fluoropyridin-2-yl)methyl)-7-hydroxy-4-isobutyl-5-oxo-4,5-dihydropyrazolo[1,5-a]pyrimidine-3,6-dicarboxamide]
  IC50: 0.9 nM

## CC(C)Cn1c(=O)c(C(=O)NC2CC2)c(O)n2ncc(/C=C/c3cnccn3)c12 [Synthesis Example 236, (E)-N-Cyclopropyl-7-hydroxy-4-isobutyl-5-oxo-3-(2-(pyrazin-2-yl)vinyl)-4,5-dihydropyrazolo[1,5-a]pyrimidine-6-carboxamide]
  IC50: 0.97 nM

## CC(C)Cn1c(=O)c(C(=O)NC2CC2)c(O)n2ncc(/C=C/C3CCOCC3)c12 [Synthesis Example 237, (E)-N-Cyclopropyl-7-hydroxy-4-isobutyl-5-oxo-3-(2-(tetrahydro-2H-pyran-4-yl)vinyl)-4,5-dihydropyrazolo[1,5-a]pyrimidine-6-carboxamide]
  IC50: 0.91 nM

## Cc1noc(C)c1/C=C/c1cnn2c(O)c(C(=O)NC3CC3)c(=O)n(CC(C)C)c12 [Synthesis Example 238, (E)-N-Cyclopropyl-3-(2-(3,5-dimethylisoxazol-4-yl)vinyl)-7-hydroxy-4-isobutyl-5-oxo-4,5-dihydropyrazolo[1,5-a]pyrimidine-6-carboxamide]
  IC50: 0.89 nM

## CC(C)Cn1c(=O)c(C(=O)NC2CC2)c(O)n2ncc(C3=CCCNC3)c12 [Synthesis Example 239, N-Cyclopropyl-7-hydroxy-4-isobutyl-5-oxo-3-(1,2,5,6-tetrahydropyridin-3-yl)-4,5-dihydropyrazolo[1,5-a]pyrimidine-6-carboxamide hydrochloride]
  IC50: 0.72 nM

## CC(C)Cn1c(=O)c(C(=O)NC2CC2)c(O)n2ncc(/C=C/c3cscn3)c12 [Synthesis Example 240, (E)-N-Cyclopropyl-7-hydroxy-4-isobutyl-5-oxo-3-(2-(thiazol-4-yl)vinyl)-4,5-dihydropyrazolo[1,5-a]pyrimidine-6-carboxamide]
  IC50: 1.84 nM

## CC(C)Cn1c(=O)c(C(=O)NC2CC2)c(O)n2ncc(/C=C/C3CCNCC3)c12 [Synthesis Example 241, (E)-N-Cyclopropyl-7-hydroxy-4-isobutyl-5-oxo-3-(2-(piperidin-4-yl)vinyl)-4,5-dihydropyrazolo[1,5-a]pyrimidine-6-carboxamide hydrochloride]
  IC50: 1.98 nM

## CC(C)Cn1c(=O)c(C(=O)NC2CC2)c(O)n2ncc(/C=C/C3(C)CCOCC3)c12 [Synthesis Example 242, (E)-N-Cyclopropyl-7-hydroxy-4-isobutyl-3-(2-(4-methyltetrahydro-2H-pyran-4-yl)vinyl)-5-oxo-4,5-dihydropyrazolo[1,5-a]pyrimidine-6-carboxamide]
  IC50: 1.39 nM

## CC(C)Cn1c(=O)c(C(=O)NC2CC2)c(O)n2ncc(/C=C/C(C)(C)C)c12 [Synthesis Example 243, (E)-N-Cyclopropyl-3-(3,3-dimethylbut-1-en-1-yl)-7-hydroxy-4-isobutyl-5-oxo-4,5-dihydropyrazolo[1,5-a]pyrimidine-6-carboxamide]
  IC50: 1.58 nM

## CC(=O)N1CCC(/C=C/c2cnn3c(O)c(C(=O)NC4CC4)c(=O)n(CC(C)C)c23)CC1 [Synthesis Example 244, (E)-3-(2-(1-Acetylpiperidin-4-yl)vinyl)-N-cyclopropyl-7-hydroxy-4-isobutyl-5-oxo-4,5-dihydropyrazolo[1,5-a]pyrimidine-6-carboxamide]
  IC50: 0.99 nM

## CC(=O)N1CCC(C)(/C=C/c2cnn3c(O)c(C(=O)NC4CC4)c(=O)n(CC(C)C)c23)CC1 [Synthesis Example 245, (E)-3-(2-(1-Acetyl-4-methylpiperidin-4-yl)vinyl)-N-cyclopropyl-7-hydroxy-4-isobutyl-5-oxo-4,5-dihydropyrazolo[1,5-a]pyrimidine-6-carboxamide]
  IC50: 1.08 nM

## CC(C)Cn1c(=O)c(C(=O)NC2CC2)c(O)n2ncc(/C=C/C3CC3)c12 [Synthesis Example 246, (E)-N-Cyclopropyl-3-(2-cyclopropylvinyl)-7-hydroxy-4-isobutyl-5-oxo-4,5-dihydropyrazolo[1,5-a]pyrimidine-6-carboxamide]
  IC50: 1.19 nM

## CC(C)Cn1c(=O)c(C(=O)NC2CC2)c(O)n2ncc(/C=C/c3cccnc3)c12 [Synthesis Example 247, (E)-N-Cyclopropyl-7-hydroxy-4-isobutyl-5-oxo-3-(2-(pyridin-3-yl)vinyl)-4,5-dihydropyrazolo[1,5-a]pyrimidine-6-carboxamide]
  IC50: 0.94 nM

## CC(C)Cn1c(=O)c(C(=O)NC2CC2)c(O)n2ncc(/C=C/c3ccc(C(F)(F)F)nc3)c12 [Synthesis Example 248, (E)-N-Cyclopropyl-7-hydroxy-4-isobutyl-5-oxo-3-(2-(6-(trifluoromethyl)pyridine-3-yl)vinyl)-4,5-dihydropyrazolo[1,5-a]pyrimidine-6-carboxamide]
  IC50: 1.89 nM

## CC(C)Cn1c(=O)c(C(=O)NC2CC2)c(O)n2ncc(/C=C/C3CCN(CC(F)(F)F)CC3)c12 [Synthesis Example 249, (E)-N-Cyclopropyl-7-hydroxy-4-isobutyl-5-oxo-3-(2-(1-(2,2,2-trifluoroethyl)piperidin-4-yl)vinyl)-4,5-dihydropyrazolo[1,5-a]pyrimidine-6-carboxamide]
  IC50: 2.69 nM

## CC(C)Cn1c(=O)c(C(=O)NC2CC2)c(O)n2ncc(CCc3cccnc3)c12 [Synthesis Example 250, N-Cyclopropyl-7-hydroxy-4-isobutyl-5-oxo-3-(2-(pyridin-3-yl)ethyl)-4,5-dihydropyrazolo[1,5-a]pyrimidine-6-carboxamide]
  IC50: 0.88 nM

## CC(C)Cn1c(=O)c(C(=O)NC2CC2)c(O)n2ncc(CCc3ccc(C(F)(F)F)nc3)c12 [Synthesis Example 251, N-Cyclopropyl-7-hydroxy-4-isobutyl-5-oxo-3-(2-(6-(trifluoromethyl)pyridin-3-yl)ethyl)-4,5-dihydropyrazolo[1,5-a]pyrimidine-6-carboxamide]
  IC50: 1.74 nM

## C/C(=C\c1cnn2c(O)c(C(=O)NC3CC3)c(=O)n(CC(C)C)c12)C(=O)O [Synthesis Example 252, (E)-3-(6-(Cyclopropylcarbamoyl)-7-hydroxy-4-isobutyl-5-oxo-4,5-dihydropyrazolo[1,5-a]pyrimidin-3-yl)-2-methylacrylic acid]
  IC50: 7.11 nM

## C/C(=C\c1cnn2c(O)c(C(=O)NC3CC3)c(=O)n(CC(C)C)c12)C(=O)N1CCC(F)(F)CC1 [Synthesis Example 253, (E)-N-Cyclopropyl-3-(3-(4,4-difluoropiperidin-1-yl)-2-methyl-3-oxoprop-1-en-1-yl)-7-hydroxy-4-isobutyl-5-oxo-4,5-dihydropyrazolo[1,5-a]pyrimidine-6-carboxamide]
  IC50: 0.85 nM

## C/C(=C\c1cnn2c(O)c(C(=O)NC3CC3)c(=O)n(CC(C)C)c12)C(=O)N1CCOCC1 [Synthesis Example 254, (E)-N-Cyclopropyl-7-hydroxy-4-isobutyl-3-(2-methyl-3-morpholino-3-oxoprop-1-en-1-yl)-5-oxo-4,5-dihydropyrazolo[1,5-a]pyrimidine-6-carboxamide]
  IC50: 0.84 nM
